Data reported in patent US9434688B2, “Indole derivatives as selective androgen receptor modulators (SARMS)” (Janssen Pharmaceutica, NV, priority 2004, dated 2016).
Where “and” joins values, the source holds several entries; their conditions need not be identical. Equal values may be shown once.

Experiments:
[1] = molecular target: T1, androgen receptor (Rattus norvegicus, UniProt P15207); assay: COS-7 Whole-Cell Androgen Receptor Binding Assay, Adenovirus Transduction
T1 sequence (P15207 1-902): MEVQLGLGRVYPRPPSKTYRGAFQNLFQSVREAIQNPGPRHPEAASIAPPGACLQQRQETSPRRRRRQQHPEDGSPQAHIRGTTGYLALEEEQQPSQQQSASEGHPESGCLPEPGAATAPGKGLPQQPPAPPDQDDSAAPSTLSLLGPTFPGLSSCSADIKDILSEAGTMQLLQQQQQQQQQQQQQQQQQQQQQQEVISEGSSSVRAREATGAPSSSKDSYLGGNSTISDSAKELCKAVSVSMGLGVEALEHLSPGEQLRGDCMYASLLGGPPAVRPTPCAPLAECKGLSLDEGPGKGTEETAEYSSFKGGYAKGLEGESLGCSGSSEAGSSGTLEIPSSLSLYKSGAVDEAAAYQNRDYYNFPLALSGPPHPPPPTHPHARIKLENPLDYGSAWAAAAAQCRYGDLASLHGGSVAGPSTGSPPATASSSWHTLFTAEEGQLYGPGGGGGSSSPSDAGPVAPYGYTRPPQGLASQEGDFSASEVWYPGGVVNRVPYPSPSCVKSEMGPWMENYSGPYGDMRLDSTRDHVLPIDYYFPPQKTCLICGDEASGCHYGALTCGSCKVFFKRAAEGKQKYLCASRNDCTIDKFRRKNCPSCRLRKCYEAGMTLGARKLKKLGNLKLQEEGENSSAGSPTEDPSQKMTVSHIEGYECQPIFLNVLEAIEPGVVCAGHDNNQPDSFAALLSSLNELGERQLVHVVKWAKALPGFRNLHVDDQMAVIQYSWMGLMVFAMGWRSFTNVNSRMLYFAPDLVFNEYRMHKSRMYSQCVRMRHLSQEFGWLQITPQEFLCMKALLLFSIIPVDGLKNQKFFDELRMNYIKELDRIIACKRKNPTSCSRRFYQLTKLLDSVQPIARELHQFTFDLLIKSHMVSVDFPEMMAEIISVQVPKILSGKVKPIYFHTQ
Procedure: COS-7 cells were plated in 96-well plates at 20,000 cells per well, in a solution of DMEM/F12 (GIBCO) containing 10% (v/v) charcoal-treated fetal bovine serum (Hyclone) and lacking phenol red. The cells were then incubated overnight at 37° C. in 5% (v/v) humidified CO2.
Test compound solutions were prepared by diluting the test compound in 100% (v/v) DMSO, if necessary.
Next, 1 mL of DMEM/F12 lacking phenol red was pipetted into each of the wells of a 2-mL 96-well assay block. […] The wells were carefully mixed by pipette.
In a 15 mL or 50 mL sterile centrifuge tube, a dilution in DMEM/F12 of the adenovirus AdEasy+rAR at a moi of 1:50 per well was prepared.
The medium was removed from the 96-well plates by inversion and the plates dried very briefly, inverted, on a sterile towel. As soon as possible after medium removal, 40 μL of the diluted test compound was added to each well, in duplicate. […] The plates were then incubated for 48 hours at 37° C. in 5% (v/v) humidified CO2.
The medium was removed from the above incubated plates by inversion and dried. Each well was then washed with 0.35 mL of 1×PBS. The PBS was then removed from the plates by inversion and the plates dried.
To each well was then added 50 μL of 0.5% (v/v) Triton X-100 (Sigma) in 1×PBS and the plates placed on a rotary shaker for 5 min. The contents of each well were then transferred to an OptiPlate-96 (Packard) scintillation plate. To each well was then added 0.2 mL of Microscint-20 (Packard) and the wells counted on a TopCount (Packard).
Percent inhibition was determined by testing dilutions of the test compound (usually duplicates of 10 μM) in the binding assay. Counts per well were measured and percents of inhibition determined. […] Counts per well were measured and IC50s determined by linear regression.

[2] = system: castrated male Sprague Dawley rats; assay: Ventral Prostate and Seminal Vesicle Weight In Vivo Assay; parameters: species or system rat; key: active: non weight adjusted prostate weight was ≦40 mg or the % Inhibition prostate weight, body weight adjusted was ≧40% @ 2 mg/day dosage; inactive: they did not meet the specified criteria defined above; details: immature castrated male rats, once daily for five days, with testosterone propionate 2 mg/kg subcutaneously
Procedure: Immature (approximately 50 g) castrated male Sprague Dawley rats (Charles River) were treated once daily for five days with test compound (usually given orally at 40 mg/kg in a volume of 0.3 mL, in 30% cyclodextrin or 0.5% methylcellulose vehicle) and with testosterone propionate (given subcutaneously by injection at the nape of the neck at 2 mg/kg, in a volume of 0.1 mL in sesame oil). On the sixth day, the rats were euthanized by asphyxiation in carbon dioxide. Ventral prostates and seminal vesicles were removed and their wet weights determined.
A test compound was said to be “active” if the non weight adjusted prostate weight was ≦40 mg or the % Inhibition prostate weight, body weight adjusted was ≧40% @ 2 mg/day dosage.

CCSCC(O)c1cc2cc([N+](=O)[O-])c(C(F)(F)F)cc2[nH]1 (racemic) [compound 158]
% Inhibition [1]: 62% and 56% | active / inactive: inhibition of testosterone-enhanced prostate weight [2]: inactive
